Where no end group is shown, it is not given here.

Experimental findings from patent US6930091B2, “Peptides and remedy for bone diseases containing the same as active ingredient” (priority 1995, dated 2005) are described below.

The test system of this series is ddy male mice. The note with it: mouse, in vivo, iv. As to the method:
By using the peptide prepared in Example 1, its acute toxicity was tested on ddy male mice (with the body weight ranging from 40 to 45 g). The present peptide was dissolved in a physiological saline (pH 6.0) and the solution thereof was administered intravenously into a vein in the tail of each mouse, and observation was made for 14 days. The dosage amount was set respectively at 1, 10, and 100 μg/kg.

For the sequence “KLTTIFPLNWKYRKAL [Example 1, Lys Leu Thr Thr Ile Phe Pro Leu Asn Trp Lys Tyr Arg Lys Ala Leu]”, the “Deceased mice (in words)” value is reported as “not deceased mouse observed” and the “Number of Deceased Mice” value is reported as 0/5.
